From article PMC10994559 (PLOS Neglected Tropical Diseases, 2024)
Several values for one entry are separate records, joined by “and”; a condition that tells them apart may be missing. Equal values may be shown once. Read-outs that look alike come from different tables or passages of the source.

Experiments:
L. major promastigotes = assay: L. major promastigote viability, resazurin reduction; type: cell-based, Leishmania major; conditions: Leishmania major, read-out: viability, L.major promastigote (25 µM)
Text: (§1) The infectivity of the parasites was boosted by passaging in Balb/c mice and culturing the infected lymph nodes after six weeks. L. infantum (MHOM / BR / 76 / M4192) parasite was passaged in the same media formulation with 0.5% urine.

[1] = tested on: L. infantum promastigotes; assay: L. infantum promastigote viability, resazurin reduction; type: cell-based, Leishmania infantum; conditions: Leishmania infantum, sheet LTC_compound_viability, value ± spread; for viability at 2.5 µM: read-out: viability, L. infantum promastigote (2.5 µM); for viability at 25 µM: read-out: viability, L. infantum promastigote (25 µM)
Text: as §1

[2] = tested on: L. major axenic amastigotes; assay: L. major axenic amastigote viability, resazurin reduction; conditions: Leishmania major; for viability at 25 µM: read-out: viability, L.major amastigote (25 µM); for viability at 2.5 µM: read-out: viability, L.major amastigote(2.5 µM)
Procedure, shortened: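 Axenic L. major LV561 amastigotes were grown in Grace medium with 20% FCS, pH 5.4, at 33°C and seeded at 0.5x10^5 cells/well with compounds for 72 h. Resazurin was then added for 6 h and fluorescence read at ex 550/em 590 nm; hits were retested at 2.5 μM.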

T. brucei brucei BSF = assay: T. brucei BSF viability, resazurin reduction; type: cell-based, Trypanosoma brucei brucei; conditions: Trypanosoma brucei; for viability at 25 µM: read-out: viability, T.brucei (25 µM); for EC50: read-out: EC50 T. brucei BSF, dose response, triplicate, ± SD (Table 2) / ± SE (S3 Table)
T. cruzi trypomastigotes = assay: T. cruzi viability, resazurin reduction; type: cell-based, Trypanosoma cruzi; conditions: Trypanosoma cruzi; for viability at 2.5 µM: read-out: viability, T.cruzi (2.5 µM); for viability at 25 µM: read-out: viability, T.cruzi (25 µM)
Procedure, shortened: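 Y-strain trypomastigotes kept in supplemented liver infusion tryptose broth with 10% FCS, pH 7.2, at 28°C. Viability by fluorescence resazurin reduction; single-point screen at 2.5 μM, then 18-concentration dose response. Amphotericin B as control drug.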

E. histolytica = E. histolytica viability, ATP luminescence (Cell titer glo); type: cell-based, Entamoeba histolytica; conditions: Entamoeba histolytica; for viability at 2.5 µM: read-out: viability, E.histolytica (2.5 µM); for viability at 25 µM: read-out: viability, E.histolytica (25 µM)
Procedure, shortened: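 E. histolytica strain B2-5 at 2.5x10^4 cells/ml was exposed to compound for 48 h at 37 °C under anaerobic conditions, with viability read as ATP luminescence (CellTiter-Glo). The primary screen used 25 μM in triplicate, and follow-up potency runs used 9–16-point ranges spanning 0.01–100 μM.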

[3] = Cytotoxicity assay J774, resazurin reduction; type: cell-based, murine; conditions: mouse, J774 macrophage cells; for viability at 72 h, 2.5 µM: read-out: viability, J774 (2.5 µM); for viability at 72 h, 25 µM: read-out: viability, J774 (25 µM)
Procedure, shortened: (§2)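 J774 and HepG2 cells were seeded at 0.5x10^5 cell/well and exposed to serially diluted compounds for 72 h at 37°C, 5% CO2. Viability was read by fluorescence resazurin reduction (λEx 550 nm, λEm 590 nm).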

[4] = tested on: intracellular L. infantum amastigotes; assay: Parasite rescue assay (intramacrophage, J774 infected with L. infantum); type: cell-based, Leishmania infantum; conditions: J774, 25 µM; intracellular amastigote; read-out: viability, intracellular L. major amastigote (25 µM)
[5] = tested on: intracellular L. infantum amastigotes; assay: as above; type: cell-based, Leishmania infantum; conditions: for viability at 25 µM: J774, rescue assay in J774, 25 µM, read-out: Residual viability, intracellular L. infantum amastigote (25 µM)
Description: After 24 h incubation, cells were washed five times with serum free RPMI and exposed to a serial dilution of test compounds, prepared using an acoustic dispenser (Echo 650, Labcyte), in RPMI (2% FCS). After two days, cells were washed thrice, and 20 μl of 0.05% SDS in RPMI was added upon removal of the supernatant. Upon incubation under orbital shaking for 30 seconds, cell lysis was stopped by addition of 180 μl M199 medium supplemented with 10% FCS. […] Then, fluorescence intensity of the samples was measured with a microplate reader (Synergy H1, BioTek) with λEx: 550 nm and λEm: 590 nm. Percent of viability was calculated according to cell only and media controls.
J774A.1 cells (J774) were infected with L. infantum metacyclic promastigotes. […] After controlled lysis of the infected macrophages, the released parasites were quantified using a resazurin based viability assay.

[6] = tested on: Murine macrophage cells (J774); assay: Cytotoxicity assay J774, resazurin reduction; type: cell-based; conditions: cytotoxicity, 72 h
Procedure, shortened: as §2

[7] = tested on: human hepatocyte carcinoma HepG2 cells; assay: Cytotoxicity assay HepG2, resazurin reduction; type: cell-based; conditions: cytotoxicity, 72 h, read-out: EC50 (CT50) HepG2
Description: Mammalian cell lines (J774 and HepG2) were passaged in RPMI media supplemented with MEM, Pen-Strep (1%) and 10% FCS. Cultures were kept at 37°C incubator with 5% CO2 in filter-cap flasks.
Murine macrophage cells (J774) and human hepatocyte carcinoma HepG2 cells were seeded at 0.5x10^5 cell/well in 384 well plates in triplicate, exposed to serial dilution of compounds, dispensed using an Echo 650 acoustic dispenser (Labcyte). After incubation for 72 h at 37°C, 5% CO2, cell viability was determined using fluorescence resazurin reduction assay (λEx: 550 nm; λEm: 590 nm).

[8] = 2.5 µM, read-out: viability, T.brucei (2.5 µM)
[9] = Leishmania infantum, J774, read-out: EC50 L. infantum rescue assay, intramacrophage (J774), 18 concentrations
[10] = read-out: EC50 L. infantum rescue assay, intramacrophage (J774), 18 concentrations
[11] = 72 h, read-out: Residual viability, T.brucei (2.5 µM), BSF, 2.5 µM, 72 h

Structure (SMILES)	viability at 25 µM (L. major promastigotes; 72 h)	viability at 25 µM (L. major promastigotes; 25 µM)	viability at 2.5 µM [1]	viability at 25 µM [1]	viability at 25 µM [2]	viability at 2.5 µM (T. brucei brucei BSF; [8])	viability at 25 µM (T. brucei brucei BSF)	viability at 2.5 µM (T. cruzi trypomastigotes)	viability at 25 µM (T. cruzi trypomastigotes)	viability at 2.5 µM (E. histolytica)	viability at 25 µM (E. histolytica)	viability at 72 h, 2.5 µM [3]	viability at 72 h, 25 µM [3]	melting point	viability at 25 µM [4]	viability at 2.5 µM [2]	viability at 2.5 µM (T. brucei brucei BSF; [11])	further results
Cc1cccc(C)c1NC[C@H](O)[C@@H](N)Cc1ccccc1 [LTC-1041, (2S,3S)-3-Amino-1-((2,6-dimethylphenyl)amino)-4-phenylbutan-2-ol]	88 ± 2.36%	15.5 ± 3.29%	47.1 ± 4.67%	20.3 ± 4.1%	73.8 ± 2.47%	70.5 ± 3.15%	2.06 ± 1.4%	60 ± 3.23%	57.2 ± 4.4%	85.2 ± 16.3%	128 ± 30.1%	100 ± 2.23%	85.1 ± 13.9%	63 to 65 °C	71.6 ± 22.8%	–	–	–
CC(C)(C)OC(=O)NC(Cc1ccccc1)C(O)CNc1cccc(C(F)(F)F)c1 (stereo not drawn) [LTC-1025]	88.3 ± 1.36%	0.16 ± 0.69%	55.3 ± 1.69%	0.7 ± 0.03%	21.2 ± 2.05%	78 ± 4.59%	2.26 ± 1.07%	63.1 ± 2.47%	23.4 ± 2.5%	45.9 ± 11.6%	55.3 ± 4.32%	75.1 ± 3.41%	98.5 ± 8.61%	–	–	77 ± 1.6%	–	EC50 [5, 9]: 2.9 ± 2.9 µM; viability at 25 µM ([5]; Leishmania infantum): 2.8%; EC50 [5, 10]: 2.8 µM and 2.84 µM; EC50 (T. brucei brucei BSF): 3.7 ± 1.7 µM; EC50 ([6]; Mus musculus, J774, 72 h): > 25 µM; EC50 [6]: > 16 µM; EC50 ([7]; Homo sapiens, HepG2, 72 h): 31.6 ± 1.7 µM; EC50 [7]: 33.8 µM and 31.6 µM
CC(C)(C)OC(=O)NC(Cc1ccccc1)C(O)CNc1ccc(OC(F)(F)F)cc1 (stereo not drawn) [LTC-1023]	88.6 ± 3.09%	0.83 ± 1.76%	67.5 ± 2.44%	1.5 ± 0.05%	18 ± 1.91%	-1.06 ± 0.31%	1.99 ± 1%	58.51 ± 0.23%	23.2 ± 1.67%	48.5 ± 4.19%	59.6 ± 14.7%	96.7 ± 4.49%	75.7 ± 4.65%	–	–	68.4 ± 1.28%	< 10%	EC50 [5, 9]: 4.1 ± 1.8 µM; viability at 25 µM ([5]; Leishmania infantum): 4.9%; EC50 [5, 10]: 4.08 ± 1.8 µM; EC50 (T. brucei brucei BSF): 1.1 ± 1.7 µM; EC50 ([6]; Mus musculus, J774, 72 h): > 25 µM; EC50 [6]: > 16 µM; EC50 ([7]; Homo sapiens, HepG2, 72 h): 16.7 ± 1.9 µM; EC50 [7]: 31.6 µM and 16.7 µM
Cc1ccc(NC[C@H](O)[C@@H](N)Cc2ccccc2)cc1 [LTC-1043, (2S,3S)-3-Amino-4-phenyl-1-(p-tolylamino)butan-2-ol]	83.4 ± 5.16%	22.1 ± 5%	71.6 ± 5.44%	16.9 ± 2.12%	22.1 ± 2.55%	80.6 ± 2.56%	2.22 ± 1.09%	61.9 ± 0.89%	31.9 ± 1.78%	74.3 ± 21.6%	97.3 ± 19.4%	95.7 ± 7.77%	93.5 ± 8.83%	57 to 59 °C	63.4 ± 7.61%	76.2 ± 2.46%	–	–
N[C@@H](Cc1ccccc1)[C@@H](O)CNc1cccc(C(F)(F)F)c1 [LTC-1029, (2S,3S)-3-Amino-4-phenyl-1-((3-(trifluoromethyl)phenyl)amino)butan-2-ol]	88.9 ± 5.45%	-0.13 ± 0.19%	82.2 ± 2.25%	0.37 ± 0.05%	67.9 ± 2.07%	-0.97 ± 0.28%	2.21 ± 0.85%	56.8 ± 2.34%	6.68 ± 2.95%	70.3 ± 18.1%	15.4 ± 5.25%	94.9 ± 4.03%	91.9 ± 10.1%	72 to 74 °C	76.8 ± 12.2%	–	< 10%	–
COc1ccc(NC[C@H](O)[C@@H](N)Cc2ccccc2)cc1 [LTC-1042, (2S,3S)-3-Amino-1-((4-methoxyphenyl)amino)-4-phenylbutan-2-ol]	86.4 ± 2.46%	0.03 ± 0.1%	81.7 ± 3.08%	1.85 ± 0.19%	39 ± 23.4%	77.3 ± 2.39%	2.38 ± 1.15%	61.9 ± 1.61%	18.6 ± 2.9%	106 ± 18%	125 ± 46.5%	93.9 ± 4.73%	97.8 ± 15.5%	78 to 80 °C	67.6 ± 19.8%	–	–	–
N[C@@H](Cc1ccccc1)[C@@H](O)CNc1ccc(OC(F)(F)F)cc1 [LTC-1028, (2S,3S)-3-Amino-4-phenyl-1-((4-(trifluoromethoxy)phenyl)amino)butan-2-ol]	81.6 ± 2%	0.32 ± 0.34%	78.3 ± 1.53%	0.58 ± 0.24%	59.3 ± 3.42%	19.7 ± 4.81%	2.01 ± 0.92%	61 ± 0.78%	12.4 ± 0.9%	71.9 ± 4.72%	37.8 ± 19.9%	97.4 ± 5.26%	-0.47 ± 0.78%	112 to 114 °C	79.1 ± 22%	–	–	–
CC(=O)c1ccc(NC[C@H](O)[C@@H](N)Cc2ccccc2)cc1 [LTC-1031, 1-(4-(((2S,3S)-3-Amino-2-hydroxy-4-phenylbutyl)amino)phenyl)ethan-1-one]	91.6 ± 2.08%	62.7 ± 3.51%	83.7 ± 2.96%	44.9 ± 6.2%	70.9 ± 2.23%	75.5 ± 4.37%	2.18 ± 0.95%	58.4 ± 1.11%	59.3 ± 2.74%	74.1 ± 12.7%	105 ± 18.2%	95.4 ± 4.41%	-0.69 ± 0.73%	123 to 125 °C	98 ± 5.56%	–	–	–
N[C@@H](Cc1ccccc1)[C@@H](O)CNc1ccc(F)cc1F [LTC-1032, (2S,3S)-3-Amino-1-((2,4-difluorophenyl)amino)-4-phenylbutan-2-ol]	86.3 ± 2.23%	0.57 ± 0.34%	84.1 ± 3.01%	9.17 ± 0.49%	76 ± 0.96%	-0.94 ± 0.33%	2.18 ± 0.88%	59.8 ± 1.24%	29 ± 1.22%	56.3 ± 3.32%	118 ± 17.6%	96.3 ± 3.07%	96.6 ± 11.9%	89 to 91 °C	73 ± 5.58%	–	< 10%	–
